Laboratory results: BigSolDB 2.1

C1N2CN3CN1CN(C2)C3 gave a solubility (mole fraction) (in acetic acid, 304.52 K) of 0.245, a solubility (mole fraction) (in acetic acid, 310.83 K) of 0.245 and a solubility (mole fraction) (in acetic acid, 317.35 K) of 0.246. The solubility (mole fraction) (in acetic acid, 321.91 K) was 0.249, the solubility (mole fraction) (in acetic acid, 327.65 K) was 0.25 and the solubility (mole fraction) (in acetic acid, 332.65 K) was 0.251. The solubility (mole fraction) (in acetic acid, 337.15 K) was 0.256, the solubility (mole fraction) (in ethanol, 288.19 K) was 0.0085 and the solubility (mole fraction) (in ethanol, 293.49 K) was 0.0096. It also gave a solubility (mole fraction) (in ethanol, 298.43 K) of 0.0107, a solubility (mole fraction) (in ethanol, 303.4 K) of 0.012 and a solubility (mole fraction) (in ethanol, 312.91 K) of 0.0148. It also gave a solubility (mole fraction) (in methanol, 299.91 K) of 0.0234, a solubility (mole fraction) (in methanol, 304.45 K) of 0.0251 and a solubility (mole fraction) (in methanol, 307.85 K) of 0.0264. For the same molecule, the solubility (mole fraction) (in methanol, 311.9 K) was 0.028, the solubility (mole fraction) (in methanol, 315.95 K) was 0.0293 and the solubility (mole fraction) (in methanol, 319.63 K) was 0.0304. The solubility (mole fraction) (in methanol, 323.65 K) was 0.032, the solubility (mole fraction) (in methanol, 326.25 K) was 0.0335 and the solubility (mole fraction) (in methanol, 330.85 K) was 0.0353. The solubility (mole fraction) (in water, 303.21 K) was 0.098, the solubility (mole fraction) (in water, 307.4 K) was 0.0959 and the solubility (mole fraction) (in water, 312.18 K) was 0.0948. The solubility (mole fraction) (in water, 317.05 K) was 0.0931, the solubility (mole fraction) (in water, 321.86 K) was 0.0914 and the solubility (mole fraction) (in water, 326.15 K) was 0.0894. The solubility (mole fraction) (in water, 330.45 K) was 0.0891, the solubility (mole fraction) (in water, 335.42 K) was 0.0895 and the solubility (mole fraction) (in water, 340.35 K) was 0.0914.
